Test results reported in patent publication US20240174723A1, “STAPLED ANTIMICROBIAL PEPTIDES (STAMPS) AND USES THEREOF” (Lytica Therapeutics, Inc., priority 2021, published 2024).
≈ marks a conversion by molar mass, not a printed value. Positions of bridges follow the written chain, without caps; N, C: chain ends. Non-standard residues stand in square brackets, D forms with d. Residues, ends and D or L forms follow the SMILES beside them. Phe(4-CF3) = N[C@@H](Cc1ccc(C(F)(F)F)cc1)C(=O)O; S5 = C=CCCC[C@](C)(N)C(=O)O; Dap = NC[C@H](N)C(=O)O

Columns and labels:
E. coli = type: cell-based, Escherichia coli
Method in brief: (§1)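 Visible-growth endpoint after 20-24 h at 37 °C defines the MIC. Test organisms, pre-grown to log phase, were exposed at 5×10^5 CFU/ml to peptide dilution series in standard or cation-adjusted Mueller-Hinton broth.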

A. baumannii = type: cell-based, Acinetobacter baumannii
Method in brief: as §1

P. aeruginosa = type: cell-based, Pseudomonas aeruginosa
Method in brief: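 MIC taken as lowest peptide concentration with no visible growth after 20-24 h at 37 °C. Peptide serial dilutions from water stocks met P. aeruginosa inoculum (5×10^5 CFU/ml final) in MHB or MHB II, per a CLSI-adapted microbroth protocol.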

K. pneumoniae = type: cell-based, Klebsiella pneumoniae
Method in brief: as §1

S. aureus = type: cell-based, Staphylococcus aureus
Method in brief: as §1

in vitro [1] = type: cell-based; conditions: human
Method in brief: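 LDH release (absorbance at 490 nm) measured in the media of cells treated with serially diluted StAMPs or vehicle at 37 °C: 90 min for renal RPTEC, 48 h for liver HepG2. Cells were seeded overnight beforehand and media refreshed before dosing.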

in vitro [2] = type: cell-based; conditions: human, Inhibitory Concentration at 50% Cytotoxicity (IC50) Human Liver Cells (HepG2)
Method in brief: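 Cytotoxicity read by CellTiter-Glo luminescence after 48 h at 37 °C exposure to serially diluted StAMPs or vehicle. HepG2 cells were grown in EMEM plus 10% FBS and given 4 h to attach before dosing; peptides came from a 5 mg/mL aqueous stock.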

Minimum Inhibitory Concentration (MIC) E. coli (E. coli)	Minimum Inhibitory Concentration (MIC) A. baumannii (A. baumannii)	Minimum Inhibitory Concentration (MIC) P. aeruginosa (P. aeruginosa)	Minimum Inhibitory Concentration (MIC) K. pneumoniae (K. pneumoniae)	Minimum Inhibitory Concentration (MIC) S. aureus (S. aureus)	IC50 at 90 min (in vitro [1])	Compound	IC50 at 48 hours (in vitro [2])
2 µg/mL	2 µg/mL	4 µg/mL	8 µg/mL	>64 µg/mL	200 µg/mL (≈ 79.3 µM)	CC(C)[C@@H]1NC(=O)[C@@](C)(NC(=O)[C@H](C)NC(=O)[C@H](CCCCN)NC(=O)CNC(=O)[C@H](Cc2ccccc2)NC(=O)[C@H](CCCCN)NC(=O)[C@H](CCCCN)NC(=O)[C@H](CN)NC(=O)[C@H](CCCCN)NC(=O)[C@H](CCCCN)NC(=O)[C@]2(C)CCCC=CCCC[C@](C)(NC(=O)CN)C(=O)NCC(=O)N[C@@H](CCCCN)C(=O)N[C@@H](Cc3ccccc3)C(=O)N2)CCCC=CCCC[C@@](C)(C(=O)N[C@@H](C)C(=O)N[C@@H](CCCCN)C(=O)N[C@@H](CCCCN)C(N)=O)NC(=O)[C@H](CCC(=O)O)NC(=O)CNC1=O [compound 40] (H-G[S5]GKF[S5]KK[Dap]KKFGKA[S5]VGE[S5]AKK-NH2; staple 2-6, 16-20)	203 µg/mL (≈ 80.5 µM)
4 µg/mL	4 µg/mL	16 µg/mL	8 µg/mL	16 µg/mL	27 µg/mL (≈ 10.4 µM)	CC(C)[C@@H]1NC(=O)[C@@](C)(NC(=O)[C@H](C)NC(=O)[C@H](CCCCN)NC(=O)CNC(=O)[C@H](Cc2ccccc2)NC(=O)[C@H](CCCCN)NC(=O)[C@H](CCCCN)NC(=O)[C@H](CCCCN)NC(=O)[C@H](CO)NC(=O)[C@H](Cc2c[nH]cn2)NC(=O)[C@]2(C)CCCC=CCCC[C@](C)(NC(=O)CN)C(=O)NCC(=O)N[C@@H](CCCCN)C(=O)N[C@@H](Cc3ccccc3)C(=O)N2)CCCC=CCCC[C@@](C)(C(=O)N[C@@H](C)C(=O)N[C@@H](CCCCN)C(=O)N[C@@H](Cc2c[nH]c3ccccc23)C(N)=O)NC(=O)[C@H](CCC(=O)O)NC(=O)CNC1=O [compound 67] (H-G[S5]GKF[S5]HSKKKFGKA[S5]VGE[S5]AKW-NH2; staple 2-6, 16-20)	52 µg/mL (≈ 20.1 µM)
2 µg/mL	2 µg/mL	2 µg/mL	2 µg/mL	64 µg/mL	~200 µg/mL (≈ 67.4 µM)	CC(C)[C@@H]1NC(=O)[C@@](C)(NC(=O)[C@H](C)NC(=O)[C@H](CCCCN)NC(=O)CNC(=O)[C@H](Cc2ccccc2)NC(=O)[C@H](CCCCN)NC(=O)[C@H](CCCCN)NC(=O)[C@H](CCCCN)NC(=O)[C@H](CCCCN)NC(=O)[C@H](CCCCN)NC(=O)[C@]2(C)CCCC=CCCC[C@](C)(NC(=O)CN)C(=O)NCC(=O)N[C@@H](CCCCN)C(=O)N[C@@H](Cc3ccccc3)C(=O)N2)CCCC=CCCC[C@@](C)(C(=O)N[C@@H](C)C(=O)N[C@@H](CCCCN)C(=O)N[C@@H](CCCCN)C(=O)NCC(=O)NCC(=O)N[C@@H](CCC(=O)O)C(N)=O)NC(=O)[C@H](CCC(=O)O)NC(=O)[C@H](Cc2ccc(C(F)(F)F)cc2)NC1=O [compound 35] (H-G[S5]GKF[S5]KKKKKFGKA[S5]V[Phe(4-CF3)]E[S5]AKKGGE-NH2; staple 2-6, 16-20)	> 200 µg/mL
